Earlier results on 1 molecule are cited in US9388163B2, “Multifunctional radical quenchers for the treatment of mitochondrial dysfunction” (Arizona Board of Regents, a Body Corporate of the State of …, priority 2011, dated 2016).

For this series the following is noted: James et al. (2005); cited from earlier work.

Molecules are shown by their SMILES.

Regarding `COC1=C(OC)C(=O)C(C/C=C(\C)CC/C=C(\C)CC/C=C(\C)CC/C=C(\C)CC/C=C(\C)CC/C=C(\C)CC/C=C(\C)CC/C=C(\C)CC/C=C(\C)CCC=C(C)C)=C(C)C1=O` [coenzyme Q10], the “calculated octanol-water partition coefficient” value was > 10^20.
